Experimental data taken from the NIST ThermoML archive (doi:10.1021/acs.jced.6b00429).
Numbers after ± are expanded uncertainties.

Details: Liquid, Ebulliometric method (Recirculating still)

vapor or sublimation pressure (394.71 K) | vapor or sublimation pressure (400.93 K) | vapor or sublimation pressure (406.16 K) | vapor or sublimation pressure (365.01 K) | vapor or sublimation pressure (370.79 K) | vapor or sublimation pressure (375.66 K) | SMILES
53.3 ± 0.5 kPa | 66.7 ± 0.5 kPa | 80 ± 0.6 kPa | – | – | – | OCC(F)(F)C(F)(F)C(F)(F)C(F)F [2,2,3,3,4,4,5,5-octafluoro-1-pentanol]
– | – | – | 53.3 ± 0.5 kPa | 66.7 ± 0.5 kPa | 80 ± 0.6 kPa | OCC(F)(F)C(F)F [2,2,3,3-tetrafluoro-1-propanol]
